Results published in PubChem BioAssay AID328 (DTP/NCI, 2004).
Values joined by “and” are separate entries in the source; they are usually repeats but may differ in a detail not shown here. Equal values may be shown once. Toxic doses and inconclusive results are not listed.

Tested on: BDF1 mice, P388 leukemia ip, median survival T/C
Test: NCI In Vivo Anticancer Drug Screen. Data for tumor model P388 Leukemia (intraperitoneal) in B6D2F1 (BDF1) mice
Settings: endpoint: median survival time, higher = longer survival
Summary of the method: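 In tumour-bearing mice, survival after compound treatment is set against the vehicle group and given as a quotient.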

[1] = dose: 50.0 mg/kg/injection, schedule: Q01DX009 (ip), vehicle: Klucel (hydroxypropylcellulose) (HPC)
[2] = dose: 100.0 mg/kg/injection, schedule: Q01DX009 (ip), vehicle: Klucel (hydroxypropylcellulose) (HPC)
[3] = dose: 100.0 mg/kg/injection, schedule: Q04DX003 (ip), vehicle: Klucel (hydroxypropylcellulose) (HPC)
[4] = dose: 200.0 mg/kg/injection, schedule: Q01DX009 (ip), vehicle: Klucel (hydroxypropylcellulose) (HPC)
[5] = dose: 1.0 mg/kg/injection, schedule: Q01DX009 (ip), vehicle: saline
[6] = dose: 6.25 mg/kg/injection, schedule: Q01DX009 (ip), vehicle: saline with Tween-80
[7] = dose: 12.5 mg/kg/injection, schedule: Q01DX009 (ip), vehicle: saline with Tween-80

## COc1ccc2[nH]c(C)c(SC)c2c1
dose: 50.0 mg/kg/injection, schedule: Q04DX002 (ip), vehicle: saline with Tween-80
  T/C: 98 % of control
dose: 100.0 mg/kg/injection, schedule: Q04DX002 (ip), vehicle: saline with Tween-80
  T/C: 100 % of control
dose: 200.0 mg/kg/injection, schedule: Q04DX002 (ip), vehicle: saline with Tween-80
  T/C: 89 % of control

## O=C1CCCC(=O)C1C(C[N+](=O)[O-])c1ccccc1 (stereo not drawn)
dose: 12.5 mg/kg/injection, schedule: Q01DX009 (ip), vehicle: Klucel (hydroxypropylcellulose) (HPC)
  T/C: 95 % of control and 100 % of control
dose: 25.0 mg/kg/injection, schedule: Q01DX009 (ip), vehicle: Klucel (hydroxypropylcellulose) (HPC)
  T/C: 97 % of control and 119 % of control
dose: 25.0 mg/kg/injection, schedule: Q04DX003 (ip), vehicle: Klucel (hydroxypropylcellulose) (HPC)
  T/C: 100 % of control
[1]
  T/C: 88 % of control
dose: 50.0 mg/kg/injection, schedule: Q04DX003 (ip), vehicle: Klucel (hydroxypropylcellulose) (HPC)
  T/C: 104 % of control
[2]
  T/C: 96 % of control and 110 % of control
[3]
  T/C: 108 % of control

## O=C(c1ccccc1)C(Br)C(Br)C(=O)c1ccccc1 (stereo not drawn)
[2]
  T/C: 115 % of control
[4]
  T/C: 100 % of control
dose: 400.0 mg/kg/injection, schedule: Q01DX009 (ip), vehicle: Klucel (hydroxypropylcellulose) (HPC)
  T/C: 95 % of control

## [NH-]C(CCC(N)=O)C(=O)O.[NH-]C(CCC(N)=O)C(=O)O.[Pt+2] (stereo not drawn)
dose: 12.5 mg/kg/injection, schedule: Q01DX009 (ip), vehicle: distilled water + Tween-80
  T/C: 100 % of control
dose: 25.0 mg/kg/injection, schedule: Q01DX009 (ip), vehicle: distilled water + Tween-80
  T/C: 100 % of control
dose: 50.0 mg/kg/injection, schedule: Q01DX009 (ip), vehicle: distilled water + Tween-80
  T/C: 100 % of control
dose: 100.0 mg/kg/injection, schedule: Q01DX009 (ip), vehicle: distilled water + Tween-80
  T/C: 113 % of control

## NNC(=S)N/N=C/c1ccc([N+](=O)[O-])s1
[2]
  T/C: 110 % of control
[4]
  T/C: 112 % of control

## COc1cc2cc(c1Cl)N(C)C(=O)C[C@H](OC(=O)CBr)[C@]1(C)O[C@@H]1[C@H](C)[C@@H]1C[C@@](O)(NC(=O)O1)[C@H](OC)C=C/C=C(\C)C2
dose: 0.8 micrograms/kg/injection, schedule: Q01DX009 (ip), vehicle: saline + alcohol
  T/C: 153 % of control
dose: 1.5 micrograms/kg/injection, schedule: Q01DX009 (ip), vehicle: saline + alcohol
  T/C: 170 % of control
dose: 3.1 micrograms/kg/injection, schedule: Q01DX009 (ip), vehicle: saline + alcohol
  T/C: 180 % of control
dose: 6.2 micrograms/kg/injection, schedule: Q01DX009 (ip), vehicle: saline + alcohol
  T/C: 183 % of control
dose: 12.5 micrograms/kg/injection, schedule: Q01DX009 (ip), vehicle: saline + alcohol
  T/C: 153 % of control and 200 % of control
dose: 25.0 micrograms/kg/injection, schedule: Q01DX009 (ip), vehicle: saline + alcohol
  T/C: 162 % of control and 210 % of control
dose: 50.0 micrograms/kg/injection, schedule: Q01DX009 (ip), vehicle: saline + alcohol
  T/C: 189 % of control and 210 % of control
dose: 100.0 micrograms/kg/injection, schedule: Q01DX009 (ip), vehicle: saline + alcohol
  T/C: 232 % of control and 120 % of control

## CC1(C)OCC(C2OC3OC(C)(C)OC3C2OP(=O)(N2CC2)N2CC2)O1 (stereo not drawn)
dose: 50.0 mg/kg/injection, schedule: Q01DX009 (ip), vehicle: saline with Tween-80
  T/C: 103 % of control
dose: 100.0 mg/kg/injection, schedule: Q01DX009 (ip), vehicle: saline with Tween-80
  T/C: 115 % of control
dose: 200.0 mg/kg/injection, schedule: Q01DX009 (ip), vehicle: saline with Tween-80
  T/C: 123 % of control

## COc1ccc2[nH]c3c(c2c1)CSc1ccccc1-3
dose: 100.0 mg/kg/injection, schedule: Q01DX001 (ip), vehicle: Klucel (hydroxypropylcellulose) (HPC)
  T/C: 91 % of control
dose: 200.0 mg/kg/injection, schedule: Q01DX001 (ip), vehicle: Klucel (hydroxypropylcellulose) (HPC)
  T/C: 108 % of control
dose: 400.0 mg/kg/injection, schedule: Q01DX001 (ip), vehicle: Klucel (hydroxypropylcellulose) (HPC)
  T/C: 108 % of control

## O=C(O)c1c(Cl)c(Cl)c(Cl)c(Cl)c1C(=O)O.O=C(O)c1c(Cl)c(Cl)c(Cl)c(Cl)c1C(=O)O.[Pt]
dose: 25.0 mg/kg/injection, schedule: Q04DX003 (ip), vehicle: saline sonified
  T/C: 115 % of control
dose: 50.0 mg/kg/injection, schedule: Q04DX003 (ip), vehicle: saline sonified
  T/C: 120 % of control

## C=C1[C@@H](O)[C@]2(O)OC[C@@]34[C@H]1[C@@H](OC(=O)C(C)CC)C(=O)O[C@@H]3C[C@H]1C(C)=CC(=O)[C@@H](O)[C@]1(C)[C@@H]24 (stereo partly drawn)
dose: 0.5 mg/kg/injection, schedule: Q01DX009 (ip), vehicle: saline with Tween-80
  T/C: 184 % of control
dose: 1.0 mg/kg/injection, schedule: Q01DX009 (ip), vehicle: saline with Tween-80
  T/C: 159 % of control
[5]
  T/C: 153 % of control
dose: 2.0 mg/kg/injection, schedule: Q01DX009 (ip), vehicle: saline with Tween-80
  T/C: 178 % of control
dose: 4.0 mg/kg/injection, schedule: Q01DX009 (ip), vehicle: saline
  T/C: 166 % of control
dose: 8.0 mg/kg/injection, schedule: Q01DX009 (ip), vehicle: saline
  T/C: 95 % of control

## n1nc(Nc2nn[nH]n2)n[nH]1
[1]
  T/C: 90 % of control
[2]
  T/C: 107 % of control
[4]
  T/C: 110 % of control

## OC(CN(CCCl)CCCl)C(O)C(O)C(O)CN(CCCl)CCCl (stereo not drawn)
dose: 0.13 mg/kg/injection, schedule: Q04DX003 (ip), vehicle: saline
  T/C: 150 % of control
dose: 0.2 mg/kg/injection, schedule: Q04DX003 (ip), vehicle: saline
  T/C: 166 % of control
dose: 0.25 mg/kg/injection, schedule: Q04DX003 (ip), vehicle: saline
  T/C: 155 % of control
dose: 0.3 mg/kg/injection, schedule: Q04DX003 (ip), vehicle: saline
  T/C: 191 % of control
dose: 0.44 mg/kg/injection, schedule: Q04DX003 (ip), vehicle: saline
  T/C: 212 % of control
dose: 0.5 mg/kg/injection, schedule: Q04DX003 (ip), vehicle: saline
  T/C: 183 % of control
dose: 0.67 mg/kg/injection, schedule: Q01DX009 (ip), vehicle: saline
  T/C: 241 % of control
[5]
  T/C: 219 % of control
dose: 1.0 mg/kg/injection, schedule: Q04DX003 (ip), vehicle: saline
  T/C: 177 % of control and 213 % of control
dose: 1.5 mg/kg/injection, schedule: Q01DX009 (ip), vehicle: saline
  T/C: 213 % of control
dose: 1.5 mg/kg/injection, schedule: Q04DX003 (ip), vehicle: saline
  T/C: 272 % of control and 177 % of control
dose: 2.0 mg/kg/injection, schedule: Q04DX003 (ip), vehicle: saline
  T/C: 281 % of control
dose: 2.25 mg/kg/injection, schedule: Q04DX003 (ip), vehicle: saline
  T/C: 245 % of control
dose: 6.0 mg/kg/injection, schedule: Q04DX003 (ip), vehicle: saline
  T/C: 86 % of control
dose: 26.0 micrograms/kg/injection, schedule: Q04DX003 (ip), vehicle: saline
  T/C: 100 % of control
dose: 40.0 micrograms/kg/injection, schedule: Q04DX003 (ip), vehicle: saline
  T/C: 112 % of control
dose: 60.0 micrograms/kg/injection, schedule: Q04DX003 (ip), vehicle: saline
  T/C: 120 % of control

## CCC(CO)NC(=O)/C=C/c1cc(OC)ccc1OC (stereo not drawn)
dose: 400.0 mg/kg/injection, schedule: Q01DX009 (ip), vehicle: saline with Tween-80
  T/C: 91 % of control

## CC(C)CCC[C@@H](C)[C@H]1CC[C@H]2[C@@H]3CC[C@H]4C[C@H]5N[C@H]5C[C@]4(C)[C@H]3CC[C@]12C
dose: 50.0 mg/kg/injection, schedule: Q01DX001 (ip), vehicle: saline sonified
  T/C: 100 % of control
dose: 100.0 mg/kg/injection, schedule: Q01DX001 (ip), vehicle: saline sonified
  T/C: 95 % of control

## CC/C(C)=C1\OC(=O)C(C)C(O)C(Cc2cccnc2)NC(=O)C(NC(=O)c2ncccc2O)C(C)OC1=O (stereo not drawn)
dose: 3.13 mg/kg/injection, schedule: Q01DX009 (ip), vehicle: saline with Tween-80
  T/C: 97 % of control
[6]
  T/C: 106 % of control
[7]
  T/C: 103 % of control
dose: 25.0 mg/kg/injection, schedule: Q01DX009 (ip), vehicle: saline with Tween-80
  T/C: 93 % of control

## CCCCCCCCCC(O)CCC (stereo not drawn)
[3]
  T/C: 95 % of control
dose: 200.0 mg/kg/injection, schedule: Q04DX003 (ip), vehicle: Klucel (hydroxypropylcellulose) (HPC)
  T/C: 95 % of control
dose: 400.0 mg/kg/injection, schedule: Q04DX003 (ip), vehicle: Klucel (hydroxypropylcellulose) (HPC)
  T/C: 95 % of control

## O=C1OC(O)C(Cl)=C1Cl (stereo not drawn)
dose: 1.56 mg/kg/injection, schedule: Q01DX009 (ip), vehicle: saline with Tween-80
  T/C: 101 % of control
dose: 3.12 mg/kg/injection, schedule: Q01DX009 (ip), vehicle: saline with Tween-80
  T/C: 107 % of control
[6]
  T/C: 109 % of control and 115 % of control
[7]
  T/C: 115 % of control

## CC(=O)CC(C)=O.CC(=O)CC(C)=O.O.O.[Ni]
dose: 6.25 mg/kg/injection, schedule: Q04DX003 (ip), vehicle: saline
  T/C: 108 % of control
dose: 12.5 mg/kg/injection, schedule: Q04DX003 (ip), vehicle: saline
  T/C: 104 % of control
dose: 25.0 mg/kg/injection, schedule: Q04DX003 (ip), vehicle: saline
  T/C: 114 % of control
